SMILES strings stand for the structures.

The test system of the test is human FXN. In words: EC50 assay: FXN mRNA expression by qRT-PCR in GM15850 cells after 48 hrs compound treatment. In kind it is cell-based. The following applies: Homo sapiens, 48 hrs incubation, hFXN expression normalized to hGAPDH (qRT-PCR), read-out: EC50 WT (nM, 48 hr). As for the experimental part: Cell culture: Cells were cultured in RPMI1640 medium+15% FBS. Cells were maintained at a density between 2e5/mL and 1e6/mL. Cells were centrifuged, resuspended in fresh medium, counted and plated at 150,000 cells per well in 100 uL in a non-coated, flat bottom tissue culture plate.
Compound treatment: 10 mM stock solution of FA GeneTAC was diluted 1:10 in DMSO followed by a 1:100 dilution in growth medium. Working solution was then further diluted to 10× desired final concentration of 150 nM. Compound was then diluted at a 1:3 ratio into growth medium containing 0.01% DMSO. 5-point, 3-fold dose response curve was generated. 11 μL of 1OX compound was added to wells containing 100 μL cell suspension of GM15850. 11 μL growth medium containing 0.01% DMSO was added to all wells not treated with FA GeneTAC. Cells were allowed to incubate for 48 hrs prior to cell lysis using guanidine isothiocyanate solution.
RNA isolation: Total RNA was isolated and purified in 384-well column filter plates using chaotropic salt.
qRT-PCR: qRT-PCR reactions were assembled using AgPath-ID reagents (Thermo Fisher) using 6 uL mastermix and 4 μL RNA. qRT-PCR TaqMan primer probe sets against human FXN (Assay ID Hs01075496_m1) and human GAPDH (Assay ID Hs00266705_g1) were used to measure the intended targets. qRT-PCR was run on the ThermoFisher QuantStudio 6 PRO instrument using the manufacturer's recommended cycling conditions.
Data analysis: qPCR data was analyzed using Thermo Fisher Design and Analysis software. Data was exported to Excel and hFXN expression was normalized to hGAPDH expression
A<100 nM; B is 100 nM to 500 nM; C>500 nM.
(Quantitative PCR measures a nucleic acid by following its amplification.)
For orientation: EC50 means the concentration at which the effect is half-maximal. Take `Cc1sc2c(c1C)C(c1ccc(Cl)cc1)=N[C@@H](CC(=O)NCCCCCN(CCCCCNC(=O)C[C@@H]1N=C(c3ccc(Cl)cc3)c3c(sc(C)c3C)-n3c(C)nnc31)CCOCCOCCOCCOCCOCCOCCOCCNC(=O)CCNC(=O)c1nc(NC(=O)CCNC(=O)c3cc(NC(=O)c4nc(NC(=O)CCNC(=O)c5cc(NC(=O)c6nccn6C)cn5C)cn4C)cn3C)cn1C)c1nnc(C)n1-2` [Compound 114]: the EC50 was less than 100 nM. In the case of `Cc1sc2c(c1C)C(c1ccc(Cl)cc1)=N[C@@H](CC(=O)NC1CCN(CCN3CCN(CCOCCOCCOCCOCCOCCOCCNC(=O)CCNC(=O)c4nc(NC(=O)CCNC(=O)c5cc(NC(=O)c6nc(NC(=O)CCNC(=O)c7cc(NC(=O)c8nccn8C)cn7C)cn6C)cn5C)cn4C)CC3)CC1)c1nnc(C)n1-2` [Compound 91] it was less than 100 nM; in that of `Cc1sc2c(c1C)C(c1ccc(Cl)cc1)=N[C@@H](CC(=O)N[C@H]1CC[C@@H](N(C)CCOCCOCCOCCN3CCN(CCOCCOCCOCCNC(=O)CCNC(=O)c4nc(NC(=O)CCNC(=O)C5=CC(NC(=O)c6nc(NC(=O)CCNC(=O)c7cc(NC(=O)c8nccn8C)cn7C)cn6C)CN5C)cn4C)CC3)CC1)c1nnc(C)n1-2` (stereo partly shown) [Compound 86], 100 to 500 nM.

Consider `Cc1sc2c(c1C)C(c1ccc(Cl)cc1)=N[C@@H](CC(=O)NC1CCN(CCCCCN3CCN(CCOCCOCCOCCOCCOCCNC(=O)CCNC(=O)c4nc(NC(=O)CCNC(=O)c5cc(NC(=O)c6nc(NC(=O)CCNC(=O)c7cc(NC(=O)c8nccn8C)cn7C)cn6C)cn5C)cn4C)CC3)CC1)c1nnc(C)n1-2` [Compound 107], for which the EC50 fell in the range of 100 to 500 nM.

In the case of `COc1ccc2c(c1)C(c1ccc(Cl)cc1)=N[C@@H](CC(=O)N1CC3(CCN(CCOCCOCCOCCN4CCN(CCOCCOCCOCCNC(=O)CCNC(=O)c5nc(NC(=O)CCNC(=O)c6cc(NC(=O)c7nc(NC(=O)CCNC(=O)c8cc(NC(=O)c9nccn9C)cn8C)cn7C)cn6C)cn5C)CC4)CC3)C1)c1nnc(C)n1-2` [Compound 26], the 50% effective concentration (EC50) is more than 500 nM. In the case of `Cc1sc2c(c1C)C(c1ccc(Cl)cc1)=N[C@@H](CC(=O)NC1CCN(CCOCCOCCN3CCN(CCOCCOCCOCCOCCNC(=O)CCNC(=O)c4nc(NC(=O)CCNC(=O)c5cc(NC(=O)c6nc(NC(=O)CCNC(=O)c7cc(NC(=O)c8nccn8C)cn7C)cn6C)cn5C)cn4C)CC3)CC1)c1nnc(C)n1-2` [Compound 106] it was less than 100 nM. In the case of `Cc1sc2c(c1C)C(c1ccc(Cl)cc1)=N[C@@H](CC(=O)NCCOCCOCCOCCN(CCOCCOCCOCCNC(=O)C[C@@H]1N=C(c3ccc(Cl)cc3)c3c(sc(C)c3C)-n3c(C)nnc31)CCOCCOCCOCCOCCOCCNC(=O)CCNC(=O)c1nc(NC(=O)CCNC(=O)c3cc(NC(=O)c4nc(NC(=O)CCNC(=O)c5cc(NC(=O)c6nccn6C)cn5C)cn4C)cn3C)cn1C)c1nnc(C)n1-2` [Compound 111], the EC50 is less than 100 nM. The result for `Cc1sc2c(c1C)C(c1ccc(Cl)cc1)=N[C@@H](CC(=O)Nc1ccc(N3CCC(N4CCN(CCOCCOCCOCCOCCOCCOCCNC(=O)CCNC(=O)c5nc(NC(=O)CCNC(=O)c6cc(NC(=O)c7nc(NC(=O)CCNC(=O)c8cc(NC(=O)c9nccn9C)cn8C)cn7C)cn6C)cn5C)CC4)CC3)nc1)c1nnc(C)n1-2` [Compound 124] reads less than 100 nM. The result for `Cc1cc(F)cc(C)c1Oc1ccc(C(C)(C)O)cc1-c1cn(C)c(=O)c2[nH]c(C(=O)Nc3ccc(OCCOCCOCCOCCOCCOCCOCCOCCOCCNC(=O)CCNC(=O)c4nc(NC(=O)CCNC(=O)c5cc(NC(=O)c6nc(NC(=O)CCNC(=O)c7cc(NC(=O)c8nccn8C)cn7C)cn6C)cn5C)cn4C)c(OC(=O)c4cc5c(-c6cc(C(C)(C)O)ccc6Oc6c(C)cc(F)cc6C)cn(C)c(=O)c5[nH]4)c3)cc12` [Compound 240] reads less than 100 nM; that for `Cc1sc2c(c1C)C(c1ccc(Cl)cc1)=N[C@@H](CC(=O)N1CCC(C#CC#CC3CCN(CCOCCOCCNC(=O)CCNC(=O)c4nc(NC(=O)CCNC(=O)c5cc(NC(=O)c6nc(NC(=O)CCNC(=O)c7cc(NC(=O)c8nccn8C)cn7C)cn6C)cn5C)cn4C)CC3)CC1)c1nnc(C)n1-2` [Compound 138], less than 100 nM; that for `Cc1sc2c(c1C)C(c1ccc(Cl)cc1)=N[C@@H](CC(=O)N1CCC(C#CC#CCNCCOCCNC(=O)CCNC(=O)c3nc(NC(=O)CCNC(=O)c4cc(NC(=O)c5nc(NC(=O)CCNC(=O)c6cc(NC(=O)c7nccn7C)cn6C)cn5C)cn4C)cn3C)CC1)c1nnc(C)n1-2` [Compound 163], less than 100 nM. In the case of `Cc1sc2c(c1C)C(c1ccc(Cl)cc1)=N[C@@H](CC(=O)N1CCC(C#CC#CC3CCN(CCOCCOCCOCCOCCOCCNC(=O)CCNC(=O)c4nc(NC(=O)CCNC(=O)c5cc(NC(=O)c6nc(NC(=O)CCNC(=O)c7cc(NC(=O)c8nccn8C)cn7C)cn6C)cn5C)cn4C)CC3)CC1)c1nnc(C)n1-2` [Compound 140] it was less than 100 nM; in that of `Cc1cc(F)cc(C)c1Oc1ccc(C(C)(C)O)cc1-c1cn(C)c(=O)c2[nH]c(C(=O)N3CCC(N4CCN(CCOCCOCCOCCOCCC(=O)NCCCN(CCCNC(=O)CCNC(=O)c5nc(NC(=O)CCNC(=O)c6cc(NC(=O)c7nc(NC(=O)CCNC(=O)c8cc(NC(=O)c9nccn9C)cn8C)cn7C)cn6C)cn5C)CC(F)(F)F)CC4)CC3)cc12` [Compound 170], more than 500 nM. On to `COCCOCCOCCOCCOCCOCCOCCOCCN(CCCCCn1cc(NC(=O)c2nc(NC(=O)CCNC(=O)c3cc(NC(=O)c4nccn4C)cn3C)cn2C)cc1C(=O)NCCC(=O)Nc1cn(C)c(C(=O)NCCC(=O)NCCOCCOCCOCCOCCOCCOCCOCCOCCOc2ccc(NC(=O)c3cc4c(-c5cc(C(C)(C)O)ccc5Oc5c(C)cc(F)cc5C)cn(C)c(=O)c4[nH]3)cc2)n1)CCOCCOCCOCCOCCOCCOCCOCCOC` [Compound 242], for which the concentration giving a half-maximal response (EC50) was less than 100 nM. As for `CCCCCCCC(=O)N(CC#CC#Cc1ccc(NC(=O)C[C@@H]2N=C(c3ccc(Cl)cc3)c3c(sc(C)c3C)-n3c(C)nnc32)cc1)CCOCCOCCOCCOCCOCCNC(=O)CCNC(=O)c1nc(NC(=O)CCNC(=O)c2cc(NC(=O)c3nc(NC(=O)CCNC(=O)c4cc(NC(=O)c5nccn5C)cn4C)cn3C)cn2C)cn1C` [Compound 201], the concentration giving a half-maximal response (EC50) is more than 500 nM. Turning to `COCCOCCOCCOCCN(CCCCCn1cc(NC(=O)c2nc(NC(=O)CCNC(=O)c3cc(NC(=O)c4nccn4C)cn3C)cn2C)cc1C(=O)NCCC(=O)Nc1cn(C)c(C(=O)NCCC(=O)NCCOCCOCCOCCOCCOCCOCCOCCOCCOc2ccc(NC(=O)c3cc4c(-c5cc(C(C)(C)O)ccc5Oc5c(C)cc(F)cc5C)cn(C)c(=O)c4[nH]3)cc2)n1)CCOCCOCCOCCOC` [Compound 241], the EC50 was more than 500 nM. Regarding `Cc1sc2c(c1C)C(c1ccc(Cl)cc1)=N[C@@H](CC(=O)N1CCC(C#CC#CC3CCN(CCOCCOCCOCCOCCOCCOCCOCCNC(=O)CCNC(=O)c4nc(NC(=O)CCNC(=O)c5cc(NC(=O)c6nc(NC(=O)CCNC(=O)c7cc(NC(=O)c8nccn8C)cn7C)cn6C)cn5C)cn4C)CC3)CC1)c1nnc(C)n1-2` [Compound 142], the 50% effective concentration (EC50) is less than 100 nM. As to `Cc1sc2c(c1C)C(c1ccc(Cl)cc1)=N[C@@H](CC(=O)Nc1ccc(C#CC3CCN(CCOCCOCCOCCOCCOCCNC(=O)CCNC(=O)c4nc(NC(=O)CCNC(=O)c5cc(NC(=O)c6nc(NC(=O)CCNC(=O)c7cc(NC(=O)c8nccn8C)cn7C)cn6C)cn5C)cn4C)CC3)cc1)c1nnc(C)n1-2` [Compound 12], the EC50 is less than 100 nM. The result for `CC(=O)Nc1c(O[C@@H](C)c2ccccc2)cc(C=O)c(N2CCC(C#CC#CC3CCN(CCOCCOCCOCCOCCNC(=O)CCNC(=O)c4nc(NC(=O)CCNC(=O)c5cc(NC(=O)c6nc(NC(=O)CCNC(=O)c7cc(NC(=O)c8nccn8C)cn7C)cn6C)cn5C)cn4C)CC3)CC2)c1F` [Compound 136] reads more than 500 nM.

These data come from US20240124491A1, “METHODS AND COMPOUNDS FOR TREATING FRIEDREICH'S ATAXIA” (Design Therapeutics, Inc., priority 2021, published 2024).
